Test results taken from patent US20250320193A1, “OXOISOINDOLINYL SUBSTITUTED PIPERIDINEDIONE DERIVATIVE AND USE THEREOF” (GLUETACS THERAPEUTICS (SHANGHAI) CO., LTD., priority 2022, published 2025).
Like-named read-outs stand apart in the source and are kept apart here.

What was measured:
[1] = target: IKZF1 (Homo sapiens (Human), UniProt Q13422+Q96SW2); assay: Western blot, substrate protein expression in hPBMC: IKZF1; assay type: cell-based; conditions: hPBMC, compound 500 nM, 24 hours, Western blot
Procedure, shortened: (§1)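 hPBMC, 1×10^6 cells/mL, 24 h compound exposure; RIPA lysis, BCA protein assay, SDS-PAGE, NC membrane immunoblot. Densitometry vs internal control → % protein remaining; degradation % = 100% − remaining; DC50 = conc. at 50% of DMSO band signal.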

[2] = target: IKZF3 (Homo sapiens (Human), UniProt Q96SW2+Q9UKT9); assay: Western blot, substrate protein expression in hPBMC: IKZF3; assay type: cell-based; conditions: hPBMC, compound 500 nM, 24 hours, Western blot
Procedure, shortened: as §1

[3] = target: GSPT1 (Homo sapiens (Human), UniProt P15170+Q96SW2); assay: Western blot, substrate protein expression in hPBMC: GSPT1; assay type: cell-based; conditions: hPBMC, compound 500 nM, 24 hours, Western blot
Procedure, shortened: as §1

[4] = system: TMD8 cells (human diffuse large B-cell lymphoma cells); assay: Tumor cell proliferation inhibition, CCK-8; assay type: cell-based
Procedure, shortened: (§2)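 Cells were seeded, left for 24 h, then exposed to compound at 10 concentrations from a top of 10 μM in 5-fold serial dilutions. Viability was then read with CCK-8 reagent, and IC50 values came from the growth-inhibition curves.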

[5] = system: MDA-MB-231 cells (human breast adenocarcinoma cells); assay: Tumor cell proliferation inhibition, CCK-8; assay type: cell-based
Procedure, shortened: as §2

[6] = system: Kasumi-1 (human acute myeloid leukemia cells); assay: Tumor cell proliferation inhibition, CCK-8; assay type: cell-based
Procedure, shortened: as §2

[7] = system: CCRF-CEM (human acute lymphoblastic leukemia T-cells); assay: Tumor cell proliferation inhibition, CCK-8; assay type: cell-based
Procedure, shortened: as §2

[8] = system: MM.1R cells (dexamethasone-resistant human multiple myeloma cells); assay: Tumor cell proliferation inhibition, CCK-8; assay type: cell-based
Procedure, shortened: as §2

[9] = system: CAL-62 (human thyroid carcinoma cells); assay: Tumor cell proliferation inhibition, CCK-8; assay type: cell-based
Procedure, shortened: as §2

[10] = system: Jurkat cells (human T-cell leukemia cells); assay: Tumor cell proliferation inhibition, CCK-8; assay type: cell-based
Procedure, shortened: as §2

[11] = system: MM.1S cells (human multiple myeloma cells); assay: Tumor cell proliferation inhibition, CCK-8; assay type: cell-based; conditions: MM1.S
Procedure, shortened: as §2

[12] = system: H146 cells (human small cell lung carcinoma cells); assay: Tumor cell proliferation inhibition, CCK-8; assay type: cell-based
Procedure, shortened: as §2

[13] = target: human Cereblon WT GST-tagged protein (Homo sapiens (Human), UniProt Q96SW2); assay: CRBN-binding affinity, HTRF (CEREBLON BINDING kit, CISBIO); conditions: HTRF inhibitory activity
Procedure, shortened: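 HTRF competition format: test compound displaces Thalidomide-Red from GST-tagged human Cereblon WT, detected with a Eu-labelled anti-GST antibody. Percent CRBN binding inhibition was derived from the 620 nm signal, normalized to solvent-control and protein-free blank wells.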

[14] = TMD8 cells, CCK-8, read-out: inhibitory activity (IC50, nM) TMD8
[15] = MDA-MB-231 cells, CCK-8, read-out: inhibitory activity (IC50, nM) MDA-MB-231
[16] = Kasumi-1 cells, CCK-8, read-out: inhibitory activity (IC50, nM) Kasumi-1
[17] = CCRF-CEM cells, CCK-8, read-out: inhibitory activity (IC50, nM) CCRF-CEM
[18] = MM.1R cells, CCK-8, read-out: inhibitory activity (IC50, nM) MM.1R
[19] = CAL-62 cells, CCK-8, read-out: inhibitory activity (IC50, nM) CAL-62
[20] = Jurkat cells, CCK-8, read-out: inhibitory activity (IC50, nM) Jurkat
[21] = MM.1S cells, CCK-8, read-out: inhibitory activity (IC50, nM) MM.1S
[22] = NCI-H146, H146 cells, CCK-8, read-out: inhibitory activity (IC50, nM) H146

Sequence of IKZF3 (Q9UKT9 whole entry): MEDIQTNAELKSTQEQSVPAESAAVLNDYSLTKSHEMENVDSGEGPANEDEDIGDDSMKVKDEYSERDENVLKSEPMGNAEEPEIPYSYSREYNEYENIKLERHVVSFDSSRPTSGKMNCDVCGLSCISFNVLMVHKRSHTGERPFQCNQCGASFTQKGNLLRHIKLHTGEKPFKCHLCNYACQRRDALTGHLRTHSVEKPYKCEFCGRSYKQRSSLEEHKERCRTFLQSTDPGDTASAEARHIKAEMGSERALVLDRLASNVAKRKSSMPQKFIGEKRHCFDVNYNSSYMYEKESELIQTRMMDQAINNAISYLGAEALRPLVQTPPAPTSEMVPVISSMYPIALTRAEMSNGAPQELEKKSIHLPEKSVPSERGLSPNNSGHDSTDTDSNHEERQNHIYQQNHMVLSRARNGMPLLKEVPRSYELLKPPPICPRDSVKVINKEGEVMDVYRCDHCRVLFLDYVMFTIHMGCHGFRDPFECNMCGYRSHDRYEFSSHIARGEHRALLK
Sequence of IKZF3 (Q96SW2 whole entry): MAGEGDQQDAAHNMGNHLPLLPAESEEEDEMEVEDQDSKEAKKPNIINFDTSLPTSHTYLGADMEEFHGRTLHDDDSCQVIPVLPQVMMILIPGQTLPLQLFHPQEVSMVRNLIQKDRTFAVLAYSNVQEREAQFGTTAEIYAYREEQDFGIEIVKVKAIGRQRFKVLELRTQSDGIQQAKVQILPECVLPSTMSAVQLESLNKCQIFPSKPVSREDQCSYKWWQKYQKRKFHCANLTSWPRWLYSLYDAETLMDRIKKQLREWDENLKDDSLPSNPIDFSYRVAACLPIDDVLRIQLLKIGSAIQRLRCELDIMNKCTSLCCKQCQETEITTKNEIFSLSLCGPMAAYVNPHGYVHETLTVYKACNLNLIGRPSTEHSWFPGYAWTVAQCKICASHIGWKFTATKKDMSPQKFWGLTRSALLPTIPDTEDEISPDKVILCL
Sequence of IKZF3 (Q16531 whole entry partner): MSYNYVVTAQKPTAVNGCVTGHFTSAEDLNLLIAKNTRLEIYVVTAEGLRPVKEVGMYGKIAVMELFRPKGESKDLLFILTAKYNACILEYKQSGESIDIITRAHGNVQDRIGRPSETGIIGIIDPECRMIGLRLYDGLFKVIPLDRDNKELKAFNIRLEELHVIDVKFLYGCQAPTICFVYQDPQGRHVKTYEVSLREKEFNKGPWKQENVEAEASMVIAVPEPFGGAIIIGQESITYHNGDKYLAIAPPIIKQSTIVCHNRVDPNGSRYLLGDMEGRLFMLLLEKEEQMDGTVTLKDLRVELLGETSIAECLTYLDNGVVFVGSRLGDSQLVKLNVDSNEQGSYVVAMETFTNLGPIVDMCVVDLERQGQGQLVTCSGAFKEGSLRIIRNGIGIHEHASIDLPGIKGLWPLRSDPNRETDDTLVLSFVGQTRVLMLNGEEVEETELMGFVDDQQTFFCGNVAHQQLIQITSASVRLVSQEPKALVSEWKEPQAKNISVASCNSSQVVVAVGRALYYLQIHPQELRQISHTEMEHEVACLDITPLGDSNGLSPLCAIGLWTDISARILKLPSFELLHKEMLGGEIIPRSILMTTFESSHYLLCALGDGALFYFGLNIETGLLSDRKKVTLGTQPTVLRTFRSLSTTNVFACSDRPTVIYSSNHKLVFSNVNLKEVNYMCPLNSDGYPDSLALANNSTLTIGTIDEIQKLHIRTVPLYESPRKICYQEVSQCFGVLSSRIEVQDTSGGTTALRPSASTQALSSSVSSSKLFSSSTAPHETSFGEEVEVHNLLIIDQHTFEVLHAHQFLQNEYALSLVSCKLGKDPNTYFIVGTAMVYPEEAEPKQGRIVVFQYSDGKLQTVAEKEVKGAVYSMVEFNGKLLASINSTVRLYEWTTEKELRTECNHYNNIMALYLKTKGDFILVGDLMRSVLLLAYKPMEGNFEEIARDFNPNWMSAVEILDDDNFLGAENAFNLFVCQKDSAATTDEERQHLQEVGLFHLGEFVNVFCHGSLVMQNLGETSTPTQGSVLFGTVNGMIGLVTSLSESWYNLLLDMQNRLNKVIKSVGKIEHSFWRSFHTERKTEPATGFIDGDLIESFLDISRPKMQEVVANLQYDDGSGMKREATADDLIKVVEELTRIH
Sequence of human Cereblon WT GST-tagged protein (Q96SW2 whole entry): as the sequence (Q96SW2 whole entry) above
Sequence of IKZF1 (Q13422 whole entry): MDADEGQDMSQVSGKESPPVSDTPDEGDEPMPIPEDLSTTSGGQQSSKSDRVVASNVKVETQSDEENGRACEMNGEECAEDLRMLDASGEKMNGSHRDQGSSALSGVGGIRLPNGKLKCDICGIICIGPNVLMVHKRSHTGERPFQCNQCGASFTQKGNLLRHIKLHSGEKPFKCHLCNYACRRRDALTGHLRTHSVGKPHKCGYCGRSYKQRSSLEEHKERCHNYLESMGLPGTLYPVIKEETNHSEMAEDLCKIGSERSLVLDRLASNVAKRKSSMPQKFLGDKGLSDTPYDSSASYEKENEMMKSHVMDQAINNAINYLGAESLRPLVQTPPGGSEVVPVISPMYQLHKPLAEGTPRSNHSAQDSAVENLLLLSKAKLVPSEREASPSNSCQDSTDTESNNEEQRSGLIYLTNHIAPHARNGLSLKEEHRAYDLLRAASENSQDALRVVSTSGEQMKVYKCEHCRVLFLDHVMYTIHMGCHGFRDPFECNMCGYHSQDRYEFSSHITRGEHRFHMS
Sequence of IKZF1 (Q96SW2 whole entry): as the sequence (Q96SW2 whole entry) above
Sequence of IKZF1 (Q16531 whole entry partner): as the sequence (Q16531 whole entry partner) above
Sequence of GSPT1 (P15170 whole entry): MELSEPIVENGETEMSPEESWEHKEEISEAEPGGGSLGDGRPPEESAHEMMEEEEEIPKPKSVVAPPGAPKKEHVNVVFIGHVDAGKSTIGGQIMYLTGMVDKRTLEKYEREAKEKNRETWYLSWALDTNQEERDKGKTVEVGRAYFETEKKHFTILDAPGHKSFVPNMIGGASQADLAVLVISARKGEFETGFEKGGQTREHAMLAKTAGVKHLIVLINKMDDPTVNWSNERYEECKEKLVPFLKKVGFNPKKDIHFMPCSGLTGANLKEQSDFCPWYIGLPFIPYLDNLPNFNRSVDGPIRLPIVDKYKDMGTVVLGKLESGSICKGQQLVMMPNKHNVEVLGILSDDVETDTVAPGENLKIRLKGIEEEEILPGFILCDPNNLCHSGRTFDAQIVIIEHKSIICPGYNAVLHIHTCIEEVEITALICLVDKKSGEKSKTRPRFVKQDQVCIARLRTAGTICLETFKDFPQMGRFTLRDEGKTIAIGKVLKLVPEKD
Sequence of GSPT1 (Q96SW2 whole entry): as the sequence (Q96SW2 whole entry) above
Sequence of GSPT1 (Q16531 whole entry partner): as the sequence (Q16531 whole entry partner) above

Row | SMILES | substrate protein remaining % IKZF1 [1] | substrate protein remaining % IKZF3 [2] | substrate protein remaining % GSPT1 [3] | IC50 [4, 14] | IC50 [5, 15] | IC50 [6, 16] | IC50 [7, 17] | IC50 [8, 18] | IC50 [9, 19] | IC50 [10, 20] | IC50 [11, 21] | IC50 [12, 22] | IC50 [13] | other results
1 | O=C1CCC(N2Cc3cc(CN4CCN(C(c5ccccc5)c5ccccc5)CC4)ccc3C2=O)C(=O)N1 (stereo not shown) [GT-03245, 3-(5-((4-benzhydrylpiperazin-1-yl)methyl)-1-oxoisoindolin-2-yl)piperidine-2,6-dione] | A (A represents 0% ≤ substrate protein remaining % ≤ 50%) | A (A represents 0% ≤ substrate protein remaining % ≤ 50%) | A (A represents 0% ≤ substrate protein remaining % ≤ 50%) | 10 to 50 nM | 1 to 10 nM | < 1 nM | < 1 nM | < 1 nM | < 1 nM | 1 to 10 nM | 1 to 10 nM | 10 to 50 nM | 500 to 1000 nM | 
2 | O=C1CCC(N2Cc3cc(CN4CCN(C(c5ccc(F)cc5)c5ccc(F)cc5)CC4)ccc3C2=O)C(=O)N1 (stereo not shown) [GT-03386, 3-(5-((4-(bis(4-fluorophenyl)methyl)piperazin-1-yl)methyl)-1-oxoisoindolin-2-yl)piperidine-2,6-dione] | A (A represents 0% ≤ substrate protein remaining % ≤ 50%) | A (A represents 0% ≤ substrate protein remaining % ≤ 50%) | A (A represents 0% ≤ substrate protein remaining % ≤ 50%) | 50 to 100 nM | 10 to 50 nM | 10 to 50 nM | 1 to 10 nM | 1 to 10 nM | 1 to 10 nM | 10 to 50 nM | 1 to 10 nM | 50 to 100 nM | 500 to 1000 nM | 
3 | O=C1CCC(N2Cc3c(ccc(CN4CCN(C(c5ccccc5)c5ccccc5)CC4)c3F)C2=O)C(=O)N1 (stereo not shown) [GT-03466, 3-(5-((4-benzhydrylpiperazin-1-yl)methyl)-4-fluoro-1-oxoisoindolin-2-yl)piperidine-2,6-dione] | A (A represents 0% ≤ substrate protein remaining % ≤ 50%) | A (A represents 0% ≤ substrate protein remaining % ≤ 50%) | A (A represents 0% ≤ substrate protein remaining % ≤ 50%) | 10 to 50 nM | 1 to 10 nM | 1 to 10 nM | < 1 nM | 1 to 10 nM | 1 to 10 nM | 1 to 10 nM | 1 to 10 nM | 10 to 50 nM | < 500 nM | 
4 | O=C1CCC(N2Cc3cc(CN4CCN(C(c5ccccc5)c5ccccc5)CC4)cc(F)c3C2=O)C(=O)N1 (stereo not shown) [GT-03467, 3-(5-((4-benzhydrylpiperazin-1-yl)methyl)-7-fluoro-1-oxoisoindolin-2-yl)piperidine-2,6-dione] |  |  |  |  | 100 to 500 nM | 50 to 100 nM | 10 to 50 nM |  |  |  | 100 to 500 nM |  | 500 to 1000 nM | 
5 | O=C1CCC(N2Cc3c(ccc(CN4CCN(C(c5ccc(F)cc5)c5ccc(F)cc5)CC4)c3F)C2=O)C(=O)N1 (stereo not shown) [GT-03564, 3-(5-((4-(bis(4-fluorophenyl)methyl)piperazin-1-yl)methyl)-4-fluoro-1-oxoisoindolin-2-yl)piperidine-2,6-dione] | A (A represents 0% ≤ substrate protein remaining % ≤ 50%) | A (A represents 0% ≤ substrate protein remaining % ≤ 50%) | A (A represents 0% ≤ substrate protein remaining % ≤ 50%) | 10 to 50 nM | 10 to 50 nM | 1 to 10 nM | 1 to 10 nM | 10 to 50 nM | 1 to 10 nM | 10 to 50 nM | 1 to 10 nM | 10 to 50 nM | < 500 nM | 
6 | O=C1CCC(N2Cc3cc(CN4CCN(C(c5ccc(F)cc5)c5ccc(F)cc5)CC4)c(F)cc3C2=O)C(=O)N1 (stereo not shown) [GT-03698, 3-(5-((4-(bis(4-fluorophenyl)methyl)piperazin-1-yl)methyl)-6-fluoro-1-oxoisoindolin-2-yl)piperidine-2,6-dione] | A (A represents 0% ≤ substrate protein remaining % ≤ 50%) | A (A represents 0% ≤ substrate protein remaining % ≤ 50%) | A (A represents 0% ≤ substrate protein remaining % ≤ 50%) | 100 to 500 nM | 10 to 50 nM | 1 to 10 nM | < 1 nM | 1 to 10 nM | 1 to 10 nM | 1 to 10 nM | 1 to 10 nM | 10 to 50 nM | 500 to 1000 nM | 
7 | O=C1CCC(N2Cc3cc(CN4CCN(C(c5ccccc5)c5ccccc5)CC4)c(F)cc3C2=O)C(=O)N1 (stereo not shown) [GT-03700, 3-(5-((4-benzhydrylpiperazin-1-yl)methyl)-6-fluoro-1-oxoisoindolin-2-yl)piperidine-2,6-dione] | A (A represents 0% ≤ substrate protein remaining % ≤ 50%) | B (B represents substrate protein remaining % > 50%) | A (A represents 0% ≤ substrate protein remaining % ≤ 50%) | 10 to 50 nM | 1 to 10 nM | 1 to 10 nM | 1 to 10 nM | 1 to 10 nM | 1 to 10 nM | 1 to 10 nM | 1 to 10 nM | 10 to 50 nM | 500 to 1000 nM | 
8 | O=C1CCC(N2Cc3cc(CN4CCN(C(c5cccc(F)c5)c5cccc(F)c5)CC4)cc(F)c3C2=O)C(=O)N1 (stereo not shown) [GT-03704, 3-(5-((4-(bis(3-fluorophenyl)methyl)piperazin-1-yl)methyl)-7-fluoro-1-oxoisoindolin-2-yl)piperidine-2,6-dione] | B (B represents substrate protein remaining % > 50%) | A (A represents 0% ≤ substrate protein remaining % ≤ 50%) | A (A represents 0% ≤ substrate protein remaining % ≤ 50%) |  | 50 to 100 nM | 50 to 100 nM | 1 to 10 nM | 10 to 50 nM | 10 to 50 nM | 100 to 500 nM | 10 to 50 nM | 100 to 500 nM | < 500 nM | 
9 | O=C1CCC(N2Cc3cc(CN4C5CCC4CN(C(c4ccccc4)c4ccccc4)C5)c(F)cc3C2=O)C(=O)N1 (stereo not shown) [GT-03839, 3-(5-((3-benzhydryl-3,8-diazabicyclo[3.2.1]octan-8-yl)methyl)-6-fluoro-1-oxoisoindolin-2-yl)piperidine-2,6-dione] | B (B represents substrate protein remaining % > 50%) | A (A represents 0% ≤ substrate protein remaining % ≤ 50%) | A (A represents 0% ≤ substrate protein remaining % ≤ 50%) |  | 50 to 100 nM | 10 to 50 nM | 10 to 50 nM | 10 to 50 nM | 10 to 50 nM |  | 10 to 50 nM | 500 to 1000 nM | 1000 to 1900 nM | 
10 | Nc1cccc2c1CN(C1CCC(=O)NC1=O)C2=O (stereo not shown) [lenalidomide, reference compound] |  |  |  |  |  |  |  |  |  |  |  |  |  | IC50 ([4]; TMD8, read-out: inhibitory activity (IC50, nM) TMD8): > 10000 nM; IC50 ([5]; MDA-MB-231, read-out: inhibitory activity (IC50, nM) MDA-MB-231): > 10000 nM; IC50 ([6]; Kasumi 1, read-out: inhibitory activity (IC50, nM) Kasumi-1): > 10000 nM; IC50 ([7]; CCRF-CEM, read-out: inhibitory activity (IC50, nM) CCRF-CEM): > 10000 nM; IC50 ([8]; MM.1R, read-out: inhibitory activity (IC50, nM) MM.1R): > 10000 nM; IC50 ([9]; CAL-62, read-out: inhibitory activity (IC50, nM) CAL-62): > 10000 nM; IC50 ([10]; Jurkat, read-out: inhibitory activity (IC50, nM) Jurkat): > 10000 nM; IC50 ([11]; read-out: inhibitory activity (IC50, nM) MM.1S): > 10000 nM; IC50 ([12]; NCI-H146, read-out: inhibitory activity (IC50, nM) H146): > 10000 nM
11 | Nc1cccc2c1C(=O)N(C1CCC(=O)NC1=O)C2=O (stereo not shown) [pomalidomide, reference compound] |  |  |  | 5000 to 10000 nM | > 10000 nM | > 10000 nM | 5000 to 10000 nM | > 10000 nM | > 10000 nM | > 10000 nM | 500 to 1000 nM | > 10000 nM |  | 
